According to ChEMBL document CHEMBL3045801, “Synthesis of 1, 2, 4-Triazolo[1, 5-a]-1, 3, 5-triazine Derivatives for Phytotoxic Activity” (J Pestic Sci, 1995):

Experiments:
Scenedesmus acutus [1] = experiment: Phytotoxicity against Scenedesmus acutus assessed as inhibition of chlorophyll content after 16 hr by spectrophotometry relative to untreated control; type: functional
Scenedesmus acutus [2] = experiment: Growth inhibition of Scenedesmus acutus assessed as packed cell volume per ml of algal culture volume after 16 hr (reference value: 3.8 ul pcv/ml); type: functional

## N#C/N=C/N=C(\N)N/N=C/c1ccc(Cl)cc1
Scenedesmus acutus [1]
  inhibition (INH): 29.21%
Scenedesmus acutus [2]
  Activity: 3.1 uL/ml

## CN/C(=N\C=N\C#N)N/N=C/c1ccccc1
Scenedesmus acutus [1]
  inhibition (INH): 32.97%
Scenedesmus acutus [2]
  Activity: 3.3 uL/ml

## CCN/C(=N\C=N\C#N)N/N=C(\C)c1ccccc1
Scenedesmus acutus [1]
  inhibition (INH): 27.93%
Scenedesmus acutus [2]
  Activity: 3.6 uL/ml

## O=C1C2=C(CCCC2)C(=O)N1c1ccc(Br)cc1F
Scenedesmus acutus [1]
  inhibition (INH): 79%
Scenedesmus acutus [2]
  Activity: 2.1 uL/ml

## C/C(=N\N/C(N)=N/C=N/C#N)c1ccc(Cl)cc1
Scenedesmus acutus [1]
  inhibition (INH): 37.18%
Scenedesmus acutus [2]
  Activity: 3.4 uL/ml

## Nc1ncnc2nc(-c3ccc(Cl)cc3F)nn12
Scenedesmus acutus [1]
  inhibition (INH): 32.61%
Scenedesmus acutus [2]
  Activity: 3.1 uL/ml

## N#C/N=C/N=C(\N)N/N=C/c1ccc(Cl)cc1F
Scenedesmus acutus [1]
  inhibition (INH): 41.65%
Scenedesmus acutus [2]
  Activity: 3 uL/ml

## Nc1ncnc2nc(-c3ccc(Cl)cc3)nn12
Scenedesmus acutus [1]
  inhibition (INH): 25.55%
Scenedesmus acutus [2]
  Activity: 3.2 uL/ml

## NC1=NC=NC2=NC(c3ccc(Cl)cc3F)NN12 (stereo not given)
Scenedesmus acutus [1]
  inhibition (INH): 10.39%
Scenedesmus acutus [2]
  Activity: 3.4 uL/ml

## CNc1ncnc2nc(-c3ccc(Cl)cc3)nn12
Scenedesmus acutus [1]
  inhibition (INH): 8.07%
Scenedesmus acutus [2]
  Activity: 3.7 uL/ml

## CN/C(=N\C=N\C#N)N/N=C(\C)c1ccccc1
Scenedesmus acutus [1]
  inhibition (INH): 6.92%
Scenedesmus acutus [2]
  Activity: 3.8 uL/ml

## CCOc1cc(Oc2ccc(C(F)(F)F)cc2Cl)ccc1[N+](=O)[O-] [OXYFLUORFEN]
Scenedesmus acutus [1]
  inhibition (INH): 2.24%
Scenedesmus acutus [2]
  Activity: 1.4 uL/ml

## O=C1C2=C(CCCC2)C(=O)N1c1ccc(Cl)cc1 [CHLOROPHTHALIUM]
Scenedesmus acutus [1]
  inhibition (INH): 2.34%
Scenedesmus acutus [2]
  Activity: 2.5 uL/ml

## COc1ccc(/C=N/N/C(N)=N/C=N/C#N)cc1
Scenedesmus acutus [1]
  inhibition (INH): 28.77%
Scenedesmus acutus [2]
  Activity: 3 uL/ml

## NC1=NC=NC2=NC(c3ccc(Cl)cc3)NN12 (stereo not given)
Scenedesmus acutus [1]
  inhibition (INH): 4.81%
Scenedesmus acutus [2]
  Activity: 3.6 uL/ml
